From the supplement of paper PMC11616607

Experiments:
Assay in all cases: drug sensitivity score (DSS) from 5-point dose-response viability curve (DSS (area-under-curve based score)); higher = more sensitive (stronger growth inhibition or killing); extreme values may be limits of the assay
Conditions in all cases: exposure time: 72 h; concentration range: 5 concentrations over 10,000-fold range
OVCAR8 = system: OVCAR8
Procedure, shortened: (§1)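 Viability of ovarian cancer and normal ovarian cell lines was read by CellTiter-Glo luminescence after 3 days at 37°C and 5% CO2 in 384-well plates holding 1,500 cells per well. Drugs had been dispensed in DMSO or water with an Echo 550 at five concentrations over a 10,000-fold range. Using Breeze software, a drug sensitivity score was assigned per cell line and drug, higher scores meaning more sensitive, and zero means no response.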

CAOV3 = system: CAOV3
Procedure, shortened: as §1

OVCAR4 = system: OVCAR4
Procedure, shortened: as §1

JHOS2 = system: JHOS2
Procedure, shortened: as §1

OV90 = system: OV90
Procedure, shortened: as §1

HOSE2C = system: HOSE2C
Procedure, shortened: as §1

OVCAR5 = system: OVCAR5
Procedure, shortened: as §1

COV318 = system: COV318
Procedure, shortened: as §1

Ovsaho = system: Ovsaho
Procedure, shortened: as §1

COV362 = system: COV362
Procedure, shortened: as §1

HOSE1C = system: HOSE1C
Procedure, shortened: as §1

Kuramochi = system: Kuramochi
Procedure, shortened: as §1

SMILES | drug sensitivity score (OVCAR8) | drug sensitivity score (CAOV3) | drug sensitivity score (OVCAR4) | drug sensitivity score (JHOS2) | drug sensitivity score (OV90) | drug sensitivity score (HOSE2C) | drug sensitivity score (OVCAR5) | drug sensitivity score (COV318) | drug sensitivity score (Ovsaho) | drug sensitivity score (COV362) | drug sensitivity score (HOSE1C) | drug sensitivity score (Kuramochi)
Nc1nc(NC2CC2)cc(-c2cccc(Cl)c2Cl)n1 [TH588] | 2.4 | 1.9 | 1.8 | 0 | 0 | 0 | 1.9 | 0.9 | 3.7 | 0.4 | 0 | 1.6
Clc1ccccc1C(c1ccccc1)(c1ccccc1)n1cccn1 [TRAM-34] | 0 | 0 | 0 | 0 | 0 | 0 | 5 | 0 | 0 | 0 | 0 | 0
CC(=O)Nc1ccc(C(=O)Nc2ccccc2N)cc1 [Tacedinaline] | 0 | 0 | 0.1 | 0 | 1.1 | 0.7 | 3.4 | 0 | 0 | 0 | 0.6 | 1.7
C=CC[C@@H]1/C=C(\C)C[C@H](C)C[C@H](OC)[C@H]2O[C@@](O)(C(=O)C(=O)N3CCCC[C@H]3C(=O)O[C@H](/C(C)=C/[C@@H]3CC[C@@H](O)[C@H](OC)C3)[C@H](C)[C@@H](O)CC1=O)[C@H](C)C[C@@H]2OC [Tacrolimus] | 3.4 | 0.5 | 0.3 | 1.8 | 0 | 0 | 0.5 | 0 | 0.7 | 0.1 | 0.3 | 1
CN(C(=O)c1ccc(F)cc1C(F)(F)F)C1CCN(c2nnc(-c3ccnn3C)c3ccccc23)CC1 [Taladegib] | 0 | 0 | 0 | 0 | 0 | 0 | 0.2 | 0.1 | 0 | 0 | 0 | 0
Cn1ncnc1[C@H]1c2n[nH]c(=O)c3cc(F)cc(c23)N[C@@H]1c1ccc(F)cc1 [Talazoparib] | 5.7 | 4.1 | 1.9 | 3 | 5.1 | 8.7 | 3.2 | 3.1 | 4 | 0 | 10.1 | 4.3
C[C@@H]1CN(Cc2ccc(F)cc2)[C@@H](C)CN1C(=O)c1cc2c(C(=O)C(=O)N(C)C)cn(C)c2cc1Cl [Talmapimod] | 0 | 0 | 0 | 0 | 0 | 0 | 0 | 0 | 0 | 0 | 0 | 0
COc1cc(Nc2ncc(F)c(Nc3ccc4c(n3)NC(=O)C(C)(C)O4)n2)cc(OC)c1OC [Tamatinib] | 0 | 0 | 0 | 0 | 0 | 6.2 | 4.5 | 0.3 | 3.8 | 0 | 0 | 1.5
CC/C(=C(\c1ccccc1)c1ccc(OCCN(C)C)cc1)c1ccccc1 [Tamoxifen] | 0.8 | 0.6 | 0.2 | 1 | 3.7 | 1.3 | 3.9 | 0.6 | 2.9 | 0.8 | 7.9 | 2.2
COc1cc2c(N3CCN(C(=O)Nc4ccc(OC(C)C)cc4)CC3)ncnc2cc1OCCCN1CCCCC1 [Tandutinib] | 0 | 0 | 0 | 0 | 0 | 0 | 0 | 0 | 0 | 0 | 0 | 0
O[C@H]1CC[C@H](Nc2ncc3nc(Nc4c(F)cc(F)cc4F)n([C@H]4CCOC4)c3n2)CC1 [Tanzisertib] | 0 | 0 | 0 | 0 | 0 | 0 | 1.9 | 0 | 0.4 | 0 | 0 | 0.8
C[C@@H](C(=O)O)c1ccc(-c2ccccc2)c(F)c1 [Tarenflurbil] | 0 | 0 | 0 | 0.7 | 1.3 | 0 | 0.3 | 0.3 | 0 | 0 | 0 | 0
Cc1nc(-c2cn3c(n2)-c2ccc(-c4cnn(C(C)(C)C(N)=O)c4)cc2OCC3)n(C(C)C)n1 [Taselisib] | 2.1 | 7.5 | 2.1 | 3.3 | 0.3 | 7.8 | 7.9 | 2.5 | 3.1 | 1.9 | 4.5 | 4.1
COc1cccc2c1c(O)c(C(=O)N(C)c1ccc(C(F)(F)F)cc1)c(=O)n2C [Tasquinimod] | 0 | 0 | 1.9 | 0.6 | 0 | 0 | 0 | 0 | 2 | 0 | 0 | 0.2
CCN(c1cc(-c2ccc(CN3CCOCC3)cc2)cc(C(=O)NCc2c(C)cc(C)[nH]c2=O)c1C)C1CCOCC1 [Tazemetostat] | 0 | 0 | 0.1 | 2.1 | 0 | 0 | 0 | 0 | 0 | 2.3 | 0 | 0
CNC(=O)c1cc(COc2nnc(Nc3ccc(Cl)cc3)c3ccoc23)ccn1 [Telatinib] | 0 | 0 | 0 | 0 | 0 | 0 | 0 | 0.2 | 0 | 0 | 0 | 0.1
Cn1nnc2c(C(N)=O)ncn2c1=O [Temozolomide] | 0 | 0 | 0 | 0 | 0 | 0.5 | 0 | 0 | 0 | 0 | 0 | 0
CO[C@H]1C[C@@H]2CC[C@@H](C)[C@@](O)(O2)C(=O)C(=O)N2CCCC[C@H]2C(=O)O[C@H]([C@H](C)C[C@@H]2CC[C@@H](OC(=O)C(C)(CO)CO)[C@H](OC)C2)CC(=O)[C@H](C)/C=C(\C)[C@@H](O)[C@@H](OC)C(=O)[C@H](C)C[C@H](C)/C=C/C=C/C=C/1C [Temsirolimus] | 7.6 | 6.6 | 3.1 | 2.8 | 11.2 | 3.2 | 8 | 0 | 3 | 0 | 3.9 | 3.2
COc1cc([C@@H]2c3cc4c(cc3[C@@H](O[C@@H]3O[C@@H]5CO[C@@H](c6cccs6)O[C@H]5[C@H](O)[C@H]3O)[C@H]3COC(=O)[C@H]23)OCO4)cc(OC)c1O [Teniposide] | 0 | 0 | 0 | 0 | 0 | 0 | 0 | 0 | 0 | 0 | 0 | 0
CN1CCC(COc2cnc(-c3cccc(Cn4nc(-c5cccc(C#N)c5)ccc4=O)c3)nc2)CC1 [Tepotinib] | 0 | 0 | 0 | 0.5 | 0 | 0 | 0 | 0 | 0.8 | 0 | 0 | 0
COc1cc2c(Nc3ccc(Cl)c(Cl)c3F)ncnc2cc1OC[C@@H]1C[C@@H]2CN(C)C[C@@H]2C1 [Tesevatinib] | 1.3 | 8.4 | 1.6 | 0.1 | 0 | 0 | 5 | 0 | 2.2 | 0.9 | 1.6 | 1.2
O=C1CCC(N2C(=O)c3ccccc3C2=O)C(=O)N1 (stereo not given) [Thalidomide] | 0 | 0 | 0 | 0 | 0 | 0 | 0 | 0 | 0 | 0 | 0 | 0
Nc1nc2[nH]cnc2c(=S)[nH]1 [Thioguanine] | 12.7 | 11.9 | 9.9 | 2.3 | 6.3 | 2.4 | 13.4 | 0.7 | 8 | 9.4 | 3.4 | 7.2
O=c1sn(-c2cccc3ccccc23)c(=O)n1Cc1ccccc1 [Tideglusib] | 0 | 0 | 0 | 0 | 0 | 0 | 0 | 0 | 0.1 | 0 | 0 | 0
Cn1cncc1[C@@](N)(c1ccc(Cl)cc1)c1ccc2c(c1)c(-c1cccc(Cl)c1)cc(=O)n2C [Tipifarnib] | 4.2 | 3.1 | 4.7 | 3.1 | 4.7 | 3 | 4.3 | 5.2 | 7.5 | 1.7 | 9.2 | 6.8
CC#CC(=O)N1CC[C@@H](n2c(=O)n(-c3ccc(Oc4ccccc4)cc3)c3c(N)ncnc32)C1 [Tirabrutinib] | 0 | 1.6 | 0 | 0 | 0 | 0 | 0.8 | 0 | 0.3 | 0 | 0 | 1.3
O=C1NC(=O)[C@@H](c2cn3c4c(cccc24)CCC3)[C@@H]1c1c[nH]c2ccccc12 [Tivantinib] | 4.1 | 3.7 | 1.6 | 3 | 2.8 | 4.7 | 4 | 1.9 | 4.2 | 1.6 | 5.2 | 2.9
COc1cc2nccc(Oc3ccc(NC(=O)Nc4cc(C)on4)c(Cl)c3)c2cc1OC [Tivozanib] | 2.6 | 1.8 | 2.3 | 0.2 | 5.6 | 6.8 | 4 | 0.6 | 0.1 | 0 | 2.4 | 1.7
C[C@@H]1CCN(C(=O)CC#N)C[C@@H]1N(C)c1ncnc2[nH]ccc12 [Tofacitinib] | 0 | 0 | 0 | 0 | 0.3 | 0.2 | 0.2 | 0 | 0 | 0 | 2.8 | 0
CC[C@@]1(O)C(=O)OCc2c1cc1n(c2=O)Cc2cc3c(CN(C)C)c(O)ccc3nc2-1 [Topotecan] | 13.5 | 18.2 | 7.2 | 11 | 15.4 | 24.8 | 10.1 | 6.3 | 8.5 | 5.7 | 26.6 | 5.4
